Data from patent publication US20220218677A1, “ARYLQUINOZILINE DERIVATIVES AS ALPHA2-ADRENOCEPTOR SUBTYPE C (ALPHA-2C) ANTAGONISTS FOR THE TREATMENT OF SLEEP APNEA” (Bayer Aktiengesellschaft, priority 2019, published 2022).

System: upper airway collapsibility in anaesthetized, spontaneously breathing pigs
Assay: pig model of obstructive sleep apnea (OSA): upper airway collapsibility under negative pressure
Type: in vivo, German Landrace pigs
Details: for Percent pigs without collaps −50 cm H2O / Percent pigs without collaps −100 cm H2O / Percent pigs without collaps −150 cm H2O: i.v. bolus 0.3 mg/kg then i.v. infusion 0.1 mg/kg/h
Excerpt: The therapeutic potential of the compounds of formula (I) according to the present invention in sleep apnea has been assessed preclinically in a pig model of obstructive sleep apnea (OSA).
Using negative pressure, it is possible to induce collapse and thus obstruction of the upper respiratory tract in anaesthetized, spontaneously breathing pigs (Wirth K. J. et al., Sleep 36(5) (2013) pp. 699-708).
German Landrace pigs are used for the model. The pigs are anaesthetized and tracheotomized. Two tracheal are inserted into the trachea, one into the rostral part and the other into the caudal part of the trachea. Using a connection piece, the rostral cannula is connected to a tube to the negative pressure device and to the distal tracheal cannula. The distal tracheal cannula is additionally connected to a tube with an open end to atmosphere via a connection piece that served for free tracheal breathing, circumventing the upper airway. By appropriate opening and clamping of those tubes breathing can be switched from nasal breathing to breathing through the caudal tracheal cannula, circumventing the upper airway, and the (isolated) upper airway can be connected to the negative pressure device, causing airflow in the inspiratory direction.
At certain points in time, the collapsibility of the upper respiratory tract is tested by having the pig breathe via the caudal cannula and applying negative pressures of −50, −100 and −150 cm water head (cm H2O) to the upper respiratory tract. This causes the upper respiratory tract to collapse, which manifests itself in an interruption of the airflow and a pressure drop in the tube system. This test is conducted prior to the administration of the test substance and at certain intervals after the administration of the test substance. An appropriately effective test substance can prevent this collapse of the respiratory tract in the inspiratory phase.
In this OSA pig model, systemic application of the α2-Adrenoceptor subtype C (alpha-2C) antagonists of formula (I) (1S,12bS)-1-(methoxymethyl)-1-methyl-[…][2,3-a]quinolizine with i.v. bolus injection of 0.3 mg/kg followed by an i.v. infusion of 0.1 mg/kg/h for four hours inhibited upper airway collapsibility at all negative pressures of −50, −100 and −150 cm for more than 6 hours (see Table 1, 2 and 3 and FIG. 1).

[1] = time 0 min (time of administration)

With COC[C@@]1(C)CCCN2CCc3c(oc4ccccc34)[C@@H]21 [(1S,12bS)-1-(methoxymethyl)-1-methyl-1,3,4,6,7,12b-hexahydro-2H-[1]benzofuro[2,3-a]quinolizine] as the compound, how does the “duration of inhibition of upper airway collapsibility” value (all negative pressures of −50, −100 and −150 cm, i.v. bolus 0.3 mg/kg followed by i.v. infusion 0.1 mg/kg/h for four hours) read?
The value was “more than 6 hours”.

And the “Percent pigs without collaps −50 cm H2O” value [1]?
Its value is 0%.

What about the “Percent pigs without collaps −100 cm H2O” value [1] of the same compound?
Its value is 0%.

What about the “Percent pigs without collaps −150 cm H2O” value [1] of the same compound?
Its value is 0%.

What about the “Percent pigs without collaps −50 cm H2O” value (time 10 min) of the same compound?
Its value is 100%.

And the “Percent pigs without collaps −100 cm H2O” value (time 10 min)?
The value was 100%.

What about the “Percent pigs without collaps −150 cm H2O” value (time 10 min) of the same compound?
Its value is 100%.

And the “Percent pigs without collaps −50 cm H2O” value (time 60 min)?
The value was 100%.

And the “Percent pigs without collaps −100 cm H2O” value (time 60 min)?
The value was 100%.

What about the “Percent pigs without collaps −150 cm H2O” value (time 60 min) of the same compound?
The value was 100%.

What about the “Percent pigs without collaps −50 cm H2O” value (time 120 min) of the same compound?
Its value is 100%.

And the “Percent pigs without collaps −100 cm H2O” value (time 120 min)?
Its value is 100%.

And the “Percent pigs without collaps −150 cm H2O” value (time 120 min)?
Its value is 100%.

And the “Percent pigs without collaps −50 cm H2O” value (time 180 min)?
Its value is 100%.

What about the “Percent pigs without collaps −100 cm H2O” value (time 180 min) of the same compound?
The value was 100%.

And the “Percent pigs without collaps −150 cm H2O” value (time 180 min)?
The value was 100%.

And the “Percent pigs without collaps −50 cm H2O” value (time 240 min)?
Its value is 100%.

What about the “Percent pigs without collaps −100 cm H2O” value (time 240 min) of the same compound?
Its value is 100%.

What about the “Percent pigs without collaps −150 cm H2O” value (time 240 min) of the same compound?
Its value is 100%.

And the “Percent pigs without collaps −50 cm H2O” value (time 300 min)?
The value was 100%.

What about the “Percent pigs without collaps −100 cm H2O” value (time 300 min) of the same compound?
Its value is 100%.

And the “Percent pigs without collaps −150 cm H2O” value (time 300 min)?
The value was 100%.
